# Key:
# [1] = tested on: Human bronchiolar lung cells (16HBE); assay: Lung cell viability (LDH release) after HOSCN generation; type: cell-based; settings: 2 hrs, about 120 μM/hr, viability 24 hrs later
# Experimental: FIGS. 4A-4B. […] Studies were conducted under similar conditions that generated about 120 μM/hr of either HOCl or HOSCN. (FIG. 4A) Human bronchiolar lung cells (16HBE) or (FIG. 4B) Pseudomonas aeruginosa (PA01) were treated for 2 hrs with glucose oxidase (GOX) system (generates H2O2), enzyme alone (MPO or LPO), or full system (enzyme+GOX), or full system with […]. Viability was assessed 24 hrs later by lactate dehydrogenase release for lung cells or determination of colony forming units (CFUs) for bacteria.
# E. coli: AB1157 = assay: HOSCN reductase activity
# P. aeruginosa: AMT0009L = assay: HOSCN reductase activity
# P. aeruginosa: AMT0294L = assay: Viability after HOSCN exposure; settings: late disease antibiotic-resistant CF isolate
smiles,measurement,setting,value
"N#CSO [HOSCN, hypothiocyanite]",Lung cell viability,[1],spares host lung epithelial cells
same,Apparent Vmax (HOSCN reductase activity),E. coli: AB1157,ND^c (No activity detected. Limit of detection = 0.5 nmol mg^−1 min^−1)
same,Apparent Vmax (HOSCN reductase activity),P. aeruginosa: AMT0009L,0.8 ± 0.3 nmol/mg/min
same,Viability (%),P. aeruginosa: AMT0294L,0%

# Reference: patent US11986450B2, “Methods and compositions for treating infection and inflammation with selenocyanate” (National Jewish Health, priority 2017, dated 2024)
